Assay results published in US11524960B2, “Heterobicyclic inhibitors of MAT2A and methods of use for treating cancer” (AGIOS PHARMACEUTICALS, INC., priority 2018, dated 2022).

Experiments:
[1] = biological target: T1, MAT2A homodimer (Homo sapiens, UniProt P31153); test: Biochemical assay: inhibition of MAT2A (phosphate release, PiColorLock Gold); conditions: MAT2A IC50 score; read-out: Enzyme Inhibition (Example 275)
T1 construct: inferred from Ni sepharose purification and imidazole elution; made in house; host or cells: Sf9 insect cells, recombinant baculovirus (Bac to Bac, pFASTBAC1)
T1 sequence (P31153 whole entry): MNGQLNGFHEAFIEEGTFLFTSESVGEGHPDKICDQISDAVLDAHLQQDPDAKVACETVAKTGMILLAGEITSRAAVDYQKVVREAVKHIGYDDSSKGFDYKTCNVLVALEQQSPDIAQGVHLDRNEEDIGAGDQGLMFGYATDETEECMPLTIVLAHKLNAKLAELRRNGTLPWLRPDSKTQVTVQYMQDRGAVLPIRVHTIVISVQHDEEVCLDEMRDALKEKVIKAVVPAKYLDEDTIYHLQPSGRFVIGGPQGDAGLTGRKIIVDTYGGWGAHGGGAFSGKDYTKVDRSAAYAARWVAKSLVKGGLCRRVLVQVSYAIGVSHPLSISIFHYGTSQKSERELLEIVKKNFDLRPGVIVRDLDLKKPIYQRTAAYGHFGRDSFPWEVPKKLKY
Experimental: Mat2A protein was expressed by recombinant baculovirus in SF9 infected cells using the Bac to Bac system cloned into the pFASTBAC1 vector (Invitrogen, Carlsbad, Calif.). Recombinant MAT2A was isolated from the cell lysate of 150 g of infected cells using HP Ni sepharose column chromatography. Recombinant MAT2A homodimer was eluted with 250 and 500 mM imidazole, and fractions containing MAT2A were identified by sodium dodecyl sulfate polyacrylamide gel electrophoresis and pooled.
For determination of the inhibitory potency of compounds against the MAT2A homodimer, protein was diluted to […] in assay buffer (50 mM Tris, pH 8.0, 50 mM KCl, 15 mM MgCl2, 0.3 mM EDTA, 0.005% [w/v] bovine serum albumin [BSA]). Test compound was prepared in 100% dimethyl sulfoxide (DMSO) at 50× the desired final concentration. […] of compound dilution was added to 40 μL of enzyme dilution and the mixture was allowed to equilibrate for 60 minutes at 25° C. The enzymatic assay was initiated by the addition of 10 μL of substrate mix (500 μM ATP, pH 7.0, 400 μM L-methionine in 1× assay buffer), and the mixture was incubated for a further 60 minutes at 25° C. The reaction was halted and the liberated phosphate released by the enzyme in stoichiometric amounts by the production of S-adenosyl methionine (SAM) was measured using the PiColorLock Gold kit (Innova Biosciences, UK). Absolute product amounts were determined by comparison to a standard curve of potassium phosphate buffer, pH 8.0.

[2] = system: SAM in HCT116 human colon carcinoma cell line engineered to delete the MTAP gene (MTAP −/−); test: Cellular assay of target engagement (SAM) by LC-MS/MS; assay type: cell-based; conditions: Homo sapiens, HCT-116, 72 h, IC50 score, read-out: Cell 72 h SAM Inhibition (MTAP −/−; Example 276)
Experimental: Measurement of MAT2A activity in cells was made by direct quantitation of the abundance of the product of its enzymatic activity, SAM. Cancer cells were treated with candidate MAT2A inhibitors for a suitable incubation period, and the cells were then lysed using a reagent which quenched any further enzyme activity. Soluble metabolites including SAM were collected and SAM itself was directly measured from the lysate using quantitative LC-MS/MS.
A typical assay was performed using an HCT116 human colon carcinoma cell line which was genetically engineered to delete the MTAP gene (commercially available from Horizon Discovery). This cell line was utilized because it was determined that loss of the MTAP gene predicts sensitivity to MAT2A inhibitors. Cells were plated in 96-well dishes at appropriate cell density. Following 24 hours, cells were then treated with the candidate MAT2A inhibitor. Prior to addition to cells, the compound was first serially diluted in 100% DMSO, typically as a 3-fold serial dilution starting at 500× top dose with 10 dose points including DMSO only control. Compound was then transferred to a working stock plate in cell culture media by adding 5 μl of compound in DMSO to 495 μl of cell culture media. This working stock was then added to cells via a further 5-fold dilution, by adding 25 μl of working stock to 100 μl of cells in culture media. Following compound addition, cells were incubated at 37° C./5% CO2 for 72 hrs.
To quantitate SAM levels following compound treatment, cells were gently washed once in Ammonium Carbonate buffer (75 mM at pH 7.4), placed on dry ice, and lysed with metabolite extraction buffer (80% cold methanol and 20% water (v/v) with acetic acid at 1 M final concentration with 200 ng/mL deuterated d3-SAM as internal control). Following centrifugation at 4° C. at 3,200 rpm for 30 minutes, the supernatant was collected and stored at −80° C. until analysis by Liquid Chromatography with tandem Mass Spectrometry (LC-MS/MS). LC-MS/MS analysis was performed using an API6500 Mass Spectrometer (Sciex, Framingham, Mass., USA) operating in positive ion spray mode and equipped with a Waters UPLC Acquity (Waters, Milford, Mass., USA) BEH Amide column. Multiple Reaction Monitoring data was acquired for SAM and the d3-SAM standard, using a mass transition pair at m/z 399.2→250.1 and 402.2→250.1, respectively. In a typical LC-MS/MS analysis, the initial flow rate was 0.5 ml/min of 25% mobile phase A (acetonitrile and water at 5:95 (v/v) with 1% formic acid and 10 mM ammonium acetate) and 75% mobile phase B (acetonitrile and water at 95:5 (v/v) with 1% formic acid and 10 mM ammonium acetate), 0.2-0.5 minutes with 75%-35% mobile phase B, 25%-65% mobile phase A, at 0.5 min 65% mobile phase A and 35% mobile phase B, 1.0-1.1 minutes with 35%-75% mobile phase B, 65%-25% mobile phase A, at 1.1 min 25% mobile phase A and 75% mobile phase B with a total run time of 1.5 minutes.

[3] = system: HCT116 MTAP−/−; test: Inhibition of cellular proliferation (Cell Titer Glo), HCT116 MTAP−/−; assay type: cell-based, human; conditions: Homo sapiens, HCT-116, 96 h, 4 days, IC50 score, read-out: 4 Day Relative Growth Inhibition (MTAP −/−; Example 277)
Experimental: (§1) Test compound impact on cancer cell growth was assessed by treating cancer cells with compound for 4 days and then measuring proliferation using an ATP-based cell proliferation readout (Cell Titer Glo, Promega Corporation).
(§2) In a typical assay an isogenic pair of HCT116 human colon carcinoma cell lines which vary only in MTAP deletion status (HCT116 MTAP+/+ and HCT116 MTAP−/−) were plated in 96-well dishes at appropriate cell density. Following 24 hours, cells were then treated with the candidate MAT2A inhibitor. Prior to addition to cells, the compound was first serially diluted in 100% DMSO, typically as a 3-fold serial dilution starting at 500× top dose with 10 dose points including DMSO only control. Compound was then transferred to a working stock plate in cell culture media by adding 5 μl of compound in DMSO to 495 μl of cell culture media. This working stock was then added to cells via a further 5-fold dilution, by adding 25 μl of working stock to 100 μl of cells in culture media. Following compound addition, cells were incubated at 37° C./5% C02 for 4 days.
(§3) To measure inhibition of cellular proliferation, cells were allowed to equilibrate to room temperature for 30 minutes, and were then treated with 125 μl of Cell Titer Glo reagent. The plate was then covered with aluminum foil and shaken for 15 minutes to ensure complete mixing and full cell lysis. Luminescent signal was then measured using a plate-based luminometer Veritas version 1.9.2 using ATP standard curve to confirm assay reproducibility from run to run. This luminescence measure was converted to a proliferation index by subtracting from each data point the ATP luminescence signal measured from a bank (no cells) well and dividing by the ATP luminescence signal measured in 0.2% DMSO control well adjusted for signal in blank well. Compound activity was then represented as a percentage change in proliferation relative to a within-plate DMSO control against log10 of compound concentration in molar (M) units.

[4] = system: HCT116 MTAP+/+; test: Inhibition of cellular proliferation (Cell Titer Glo), HCT116 MTAP+/+; assay type: cell-based, human; conditions: Homo sapiens, HCT-116, 96 h, 4 days, IC50 score, read-out: 4 Day Relative Growth Inhibition (MTAP +/+; Example 277)
Experimental: as §1, §2, §3

Row | Compound | IC50 [1] | IC50 [2] | IC50 [3] | IC50 [4]
1 | COc1ccc(-n2cc3cnc(OCC(F)(F)F)nc3c(-c3ccc(Br)cc3)c2=O)cc1 [Example 261, 8-(4-bromophenyl)-6-(4-methoxyphenyl)-2-(2,2,2-trifluoroethoxy)pyrido[4,3-d]pyrimidin-7(6H)-one] | < 100 nM |  |  | 
2 | CCNc1ncc2c(n1)C1(CCN(Cc3cc[nH]n3)C1)C(=O)N(c1ccc(OC)cc1)C2 (centres unmarked) [Example 111, 1′-((1H-pyrazol-3-yl)methyl)-2-(ethylamino)-6-(4-methoxyphenyl)-5H-spiro[pyrido[4,3-d]pyrimidine-8,3′-pyrrolidin]-7(6H)-one] | 1000 to 10000 nM |  |  | 
3 | O=c1c(-c2ccc(Cl)cc2)c2nc(NCC(F)(F)F)ncc2cn1-c1ccc2nncn2c1 [Example 136, 6-([1,2,4]triazolo[4,3-a]pyridin-6-yl)-8-(4-chlorophenyl)-2-((2,2,2-trifluoroethyl)amino)pyrido[4,3-d]pyrimidin-7(6H)-one] | 100 to 1000 nM |  |  | 
4 | COc1ccc(N2Cc3cnc(NCC(F)(F)F)nc3C3(CCN(Cc4cc[nH]n4)C3)C2=O)cc1 (centres unmarked) [Example 110] | 100 to 1000 nM |  |  | 
5 | COc1ccc(-n2cc3cnc(NCC(F)(F)F)nc3c(-c3ccc(OC(F)(F)F)cc3)c2=O)cc1 [Example 196, 6-(4-methoxyphenyl)-2-((2,2,2-trifluoroethyl)amino)-8-(4-(trifluoromethoxy)phenyl)pyrido[4,3-d]pyrimidin-7(6H)-one] | < 100 nM |  |  | 
6 | COc1ccc(N2Cc3cnc(NCC(F)(F)F)nc3C3(CCC(O)CC3)C2=O)cc1 (centres unmarked) [Example 116, 4-hydroxy-6′-(4-methoxyphenyl)-2′-((2,2,2-trifluoroethyl)amino)-5′H-spiro[cyclohexane-1,8′-pyrido[4,3-d]pyrimidin]-7′(6′H)-one] | 1000 to 10000 nM |  |  | 
7 | O=C1N(Cc2ccn[nH]2)Cc2cnc(NCC3CC3)nc2C12CCN(Cc1ccccc1F)C2 (centres unmarked) [Example 120, 6-((1H-pyrazol-5-yl)methyl)-2-((cyclopropylmethyl)amino)-1′-(2-fluorobenzyl)-5,6-dihydro-7H-spiro[pyrido[4,3-d]pyrimidine-8,3′-pyrrolidin]-7-one] | 1000 to 10000 nM |  |  | 
8 | COc1ccc(CN2Cc3cnc(NCC4CC4)nc3C3(CCN(Cc4ccccc4)C3)C2=O)cc1 (centres unmarked) [Example 118, 1′-benzyl-2-((cyclopropylmethyl)amino)-6-(4-methoxybenzyl)-5,6-dihydro-7H-spiro[pyrido[4,3-d]pyrimidine-8,3′-pyrrolidin]-7-one] | 1000 to 10000 nM |  |  | 

Results, then the molecule that gave them:

Row | IC50 [1] | IC50 [2] | IC50 [3] | IC50 [4] | Compound
9 | < 100 nM | < 100 nM | < 100 nM | > 10 µM | CCOc1nc2c(-c3ccc(Cl)cc3)c(=O)n(-c3ccc4nn(C)cc4c3)cc2cc1C [Example 134-A]
10 | < 100 nM | < 100 nM | 100 to 10000 nM | 0.1 to 10 µM | Cc1nc2ccc(-n3cc4cnc(NCC(F)(F)F)nc4c(-c4ccc(OC(F)F)cc4)c3=O)cc2s1 [Example 150, 8-(4-(difluoromethoxy)phenyl)-6-(2-methylbenzo[d]thiazol-6-yl)-2-((2,2,2-trifluoroethyl)amino)pyrido[4,3-d]pyrimidin-7(6H)-one]
11 | < 100 nM | < 100 nM | 100 to 10000 nM | > 10 µM | CCOc1ccc2cn(-c3ccc4nn(C)cc4c3)c(=O)c(-c3ccc(C4CC4)nc3)c2n1 [Example 221, 8-(6-cyclopropylpyridin-3-yl)-2-ethoxy-6-(2-methyl-2H-indazol-5-yl)-1,6-naphthyridin-7(6H)-one]
12 | < 100 nM | < 100 nM | < 100 nM | > 10 µM | O=c1c(-c2ccc(OC(F)F)cc2)c2nc(NCC(F)(F)F)ncc2cn1-c1ccc2ncsc2c1 [Example 156, 6-(benzo[d]thiazol-6-yl)-8-(4-(difluoromethoxy)phenyl)-2-((2,2,2-trifluoroethyl)amino)pyrido[4,3-d]pyrimidin-7(6H)-one]
13 | < 100 nM | < 100 nM | < 100 nM | 0.1 to 10 µM | Cn1cc2cc(-n3cc4ccc(OCC(F)F)nc4c(-c4ccc(OC(F)F)cc4)c3=O)ccc2n1 [Example 126-A]
14 | < 100 nM | < 100 nM | < 100 nM |  | CCOc1ccc2cn(-c3ccc4nn(C)cc4c3)c(=O)c(-c3ccc(OC(F)(F)F)nc3)c2n1 [Example 133-A]
15 | < 100 nM |  |  |  | O=c1c(-c2ccc(C3CC3)cc2)c2nc(NCC(F)(F)F)ncc2cn1-c1ccc2nccn2c1 [Example 165, 8-(4-cyclopropylphenyl)-6-(imidazo[1,2-a]pyridin-6-yl)-2-((2,2,2-trifluoroethyl)amino)pyrido[4,3-d]pyrimidin-7(6)-one]
16 | < 100 nM |  |  |  | COc1ccc(-n2cc3cnc(NCC4CC4)nc3c(-c3ccc(Br)cc3)c2=O)cc1 [Example 190, 8-(4-bromophenyl)-2-((cyclopropylmethyl)amino)-6-(4-methoxyphenyl)pyrido[4,3-d]pyrimidin-7(6H)-one]
17 | < 100 nM |  |  |  | O=c1c(-c2ccc(C3CC3)cc2)c2nc(NCC(F)(F)F)ncc2cn1-c1ccc2c(c1)CCO2 [Example 164, 8-(4-cyclopropylphenyl)-6-(2,3-dihydrobenzofuran-5-yl)-2-((2,2,2-trifluoroethyl)amino)pyrido[4,3-d]pyrimidin-7(6H)-one]
18 | < 100 nM |  |  |  | CCNc1ncc2cn(-c3ccc4nn(C)cc4c3)c(=O)c(-c3ccc(OC(F)(F)F)cc3)c2n1 [Example 170, 2-(ethylamino)-6-(2-methyl-2H-indazol-5-yl)-8-(4-(trifluoromethoxy)phenyl)pyrido[4,3-d]pyrimidin-7(6H)-one]
